Data on 4 substances can be found in patent publication US20210338558A1, “USE OF COLLAGEN BINDING DOMAINS TO DELIVER PRODUCTS TO SKIN” (Fabius Biotechnology, priority 2018, published 2021).

One experiment concerns collagen. The note with it: by binding competition, on a molar basis, relative to intact VWF; cited from earlier work.
Another experiment deals with native collagen. Nature of the experiment: binding of growth factors carrying the collagen binding decapeptide to collagen. From the text:
(§1) Studies with targeted peptides used the decapeptide sequence: Trp-Arg-Glu-Pro-Ser-Phe-Met-Ala-Leu-Ser (WREPSFMALS) (SEQ ID NO: 1). It was linked to either TGF-β or BMP-3 at the C-terminus of the corresponding growth factors.
Polypeptide growth factors, of the TGF-β family, and others, were constructed to contain, at the C-terminal end, a decapeptide with high affinity for collagen (Andrades, Nimni et al. 1996; Tuan, Cheung et al. 1996; Andrades, Han et al. 1999; Hall, Han et al. 2001; Han, Perelman et al. 2002; Romijn, Westein et al. 2003). This was intended to provide concentration of the growth factors where needed for maximum efficacy. In compositions and methods according to the present invention, this effect can be used for delivery of the skin care agent or cosmeceutical to the skin.
This is compared to the behavior of TGF-β without the collagen binding domain, which has poor affinity for collagen.

Experiment [1] can be described thus: biological activity of the covalently linked growth factors. To be noted: growth factor linked at its C-terminus to decapeptide WREPSFMALS
Text: as §1

Where no end group is shown, it is not given here.

With WREPSFMALS [SEQ ID NO: 1], the “binds more efficiently to collagen than the intact VWF” value in the experiment on collagen is given as 20 times.
In the case of “TGF-β with a collagen binding domain: TGF-β linked at the C-terminus to the decapeptide WREPSFMALS; genetically engineered fusion protein (FIG. 3)”, in the experiment with native collagen (FIG. 4, urea), the “dissociation of binding to collagen” value is “requires a high concentration of urea for dissociation”. The “binding affinity towards native collagen” value in the experiment on native collagen (growth factor linked at its C-terminus to decapeptide WREPSFMALS) is recorded as “strong binding affinity”. Further, the “biological activities retained after linkage” value in experiment [1] was “retained significant biological activities”.
“TGF-β without the collagen binding domain: TGF-β lacking the collagen binding domain, comparator in FIG. 4 [reference compound]”: in the experiment on native collagen (FIG. 4), the affinity for collagen result was “poor affinity”.
Consider WREPSFCALS [SEQ ID NO: 2], for which the “binds more efficiently to collagen than the intact VWF” value with collagen was 20 times.
